Data set [1] deals with G. lamblia trophozoites. As to the kind of experiment: In vitro G. lamblia growth inhibition assay. Conditions: for IC50: KM-FCS; for inhibitory activity on G. lamblia growth: KM-FCS culture medium, without BSH. The class given is cell-based, Giardia lamblia.
For data set [2], the system named is Giardia trophozoite cultures. As to the kind of experiment: Screening of lactobacilli strain supernatants for G. lamblia growth inhibition. The class given is cell-based, Giardia lamblia. The conditions noted are these: supernatant, 24 h at 37° C., with bovine bile 0.6 g/L. The method, then:
The inhibitory effect on G. lamblia growth of different lactobacilli strains was screened (cf. table 5). Bacterial supernatant was co-incubated for 24 h at 37° C. with Giardia trophozoite cultures (triplicates), with or without bovine bile (0.6 g/L). […] Table 5 indicates the corresponding internal and official references of the bacterial strains, and bibliographic references.

Data set [3] is classed as biochemical.
Data set [4] deals with G. lamblia trophozoites. The experiment in a line: Effect of recombinant LjLa1 BSH on Giardia trophozoites cultures. It is filed as cell-based, Giardia lamblia.
The nature of data set [5]: BSH activity on taurodeoxycholic / glycodeoxycholic LB agar. The class given is biochemical. Conditions: taurodeoxycholic (0.3%) and glycodeoxycholic (0.3%) LB agar, 48 h at 37° C.
For the next data set, the system named is G. lamblia WB clone C6. As to the kind of experiment: In vivo effect of BSH-47 against G. lamblia in neonatal mice. The conditions noted are these: daily gavage day 10 to 15, vs PBS. On the procedure: FIG. 13: G. lamblia trophozoites count in the small intestine. Mice were challenged with the trophozoites of G. lamblia WB clone C6 (10^5 trophozoites per animal) at day 10 Animals were treated either with PBS or BSH-47 at 1 μg/ml (0.5 μg per mice), 10 μg/ml (5 μg per mice) or 100 μg/ml (50μg/mice) by daily intragastric gavage until day 15 (n=10 to 11/group). Values are mean±SEM; p<0.05.
Solutions of recombinant BSH-47 solutions (1 μg/ml, 10 μg/ml and 100 μg/ml diluted in NaHCO3 16.4%) were thawed and daily administered by intragastric gavage to neonatal mice (dose were respectively […] per mice) from day 10 to day 15 (day of sacrifice). Control animals received PBS instead of BSH.

[6] abbreviates: Giardia duodenalis, absence of LjLa1sn, trophozoites growth inhibition, read-out: IC50 +/− SD, with culture medium only.
Setting [7] is: Giardia duodenalis, presence of LjLa1sn, read-out: IC50 +/− SD, with bacterial spent culture medium.
The mark [8] stands for this setting: absence of LjLa1sn, trophozoites growth inhibition, read-out: IC50 +/− SD, with culture medium only.
Where [9] appears, read: presence of LjLa1sn, read-out: IC50 +/− SD, with bacterial spent culture medium.
The mark [10] stands for this setting: 0.0001 μg/ml to 10 μg/ml, presence of bovine bile (0.06 g/L).

Where two headings read alike, the source gives them in different places.

As to `C[C@H](CCC(=O)O)[C@H]1CC[C@H]2[C@@H]3[C@H](O)C[C@@H]4C[C@H](O)CC[C@]4(C)[C@H]3CC[C@]12C` [CDC, Chenodesoxycholate], the figures for the IC50 with G. lamblia trophozoites [1] (setting [6]) and in the data set with G. lamblia trophozoites [1] (setting [7]) were 147 µM and 118 µM, respectively.

Regarding `C[C@H](CCC(=O)NCCS(=O)(=O)O)[C@H]1CC[C@H]2[C@@H]3[C@H](O)C[C@@H]4C[C@H](O)CC[C@]4(C)[C@H]3CC[C@]12C` [TCDC, Taurochenodesoxycholate], the IC50 in the data set with G. lamblia trophozoites [1] (setting [6]) was above 400 µM; with G. lamblia trophozoites [1] (setting [7]), 115 µM. In addition, the “inhibitory activity on G. lamblia growth” value with G. lamblia trophozoites [1] is listed as “no inhibitory activity”.

In the case of `CC(=O)O[C@H]1C[C@@]2(C)[C@@H](C[C@@H](O)[C@H]3[C@@]4(C)CC[C@@H](O)[C@@H](C)[C@@H]4CC[C@@]32C)/C1=C(\CCC=C(C)C)C(=O)O` [FA, Fusidic acid], the IC50 in the data set with G. lamblia trophozoites [1] (setting [6]) stood at 26 µM.

For `C[C@H](CCC(=O)O)[C@H]1CC[C@H]2[C@@H]3[C@H](O)C[C@@H]4C[C@H](O)CC[C@]4(C)[C@H]3C[C@H](O)[C@]12C` [C, Cholate], the IC50 in the data set on G. lamblia trophozoites [1] (setting [8]) and in the data set on G. lamblia trophozoites [1] (setting [9]) was above 400 µM in each case.

For the molecule `C[C@H](CCC(=O)NCC(=O)O)[C@H]1CC[C@H]2[C@@H]3[C@H](O)C[C@@H]4C[C@H](O)CC[C@]4(C)[C@H]3C[C@H](O)[C@]12C` [GC, Glycocholate], the IC50 in the data set on G. lamblia trophozoites [1] (setting [6]) and in the data set on G. lamblia trophozoites [1] (setting [7]) was above 400 µM each time.

Consider `C[C@H](CCC(=O)NCC(=O)O)[C@H]1CC[C@H]2[C@@H]3CC[C@@H]4C[C@H](O)CC[C@]4(C)[C@H]3C[C@H](O)[C@]12C` [GDC, Glycodesoxycholate], for which the IC50 with G. lamblia trophozoites [1] (setting [6]) is above 400 µM; in the data set with G. lamblia trophozoites [1] (setting [7]) it was 104 µM. For the same molecule, in the data set on G. lamblia trophozoites [1], the “inhibitory activity on G. lamblia growth” value is listed as “no inhibitory activity”.

On to `C[C@H](CCC(=O)NCC(=O)O)[C@H]1CC[C@H]2[C@@H]3[C@H](O)C[C@@H]4C[C@H](O)CC[C@]4(C)[C@H]3CC[C@]12C` [GCDC, Glycochenodesoxycholate], for which the IC50 in the data set with G. lamblia trophozoites [1] (setting [6]) is above 400 µM; with G. lamblia trophozoites [1] (setting [7]), 110 µM. Besides, in the data set on G. lamblia trophozoites [1], the “inhibitory activity on G. lamblia growth” value is “no inhibitory activity”.

Consider Lactobacillus reuteri, for which the “inhibitory effect on G. lamblia growth” value in data set [2] is given as “potent inhibitors”.

On to Desoxycholate [DC], for which the IC50 with G. lamblia trophozoites [1] (setting [8]) came out at 132 µM; in the data set with G. lamblia trophozoites [1] (setting [9]), 117 µM.

Turning to `C[C@H](CCC(=O)NCCS(=O)(=O)O)[C@H]1CC[C@H]2[C@@H]3CC[C@@H]4C[C@H](O)CC[C@]4(C)[C@H]3C[C@H](O)[C@]12C` [TDC, Taurodesoxycholate], the “inhibitory activity on G. lamblia growth” value in the data set with G. lamblia trophozoites [1] was “no inhibitory activity”. In addition, the IC50 in the data set with G. lamblia trophozoites [1] (setting [8]) is above 400 µM; with G. lamblia trophozoites [1] (setting [9]), 79 µM.

Regarding Lactobacillus acidophilus, the “inhibitory effect on G. lamblia growth” value in data set [2] was “potent inhibitors”.

B1: BSH-56: recombinant L. johnsonii La1 bile-salt hydrolase LJ0056 produced as BSH-47 (protein)
chain: MCTGLRFTDDQGNLYFGRNLDVGQDYGEGVIITPRNYPLPYKFLDNTTTKKAVIGMGIVVDGYPSYFDCYNEDGLGIAGLNFPHFAKFSDGPIDGKINLASYEIMLWVTQNFTHVSEVKEALKNVNLVNEAINTSFAVAPLHWIISDSDEAIIVEVSKQYGMKVFDDKVGVLTNSPDFNWHLTNLGNYTGLNPHDATAQSWNGQKVAPWGVGTGSLGLPGDSIPADRFVKAAYLNVNYPTAKGEKANVAKFFNILKSVAMIKGSVVNDQGKDEYTVYTACYSSGSKTYYCNFEDDFELKTYKLDDHTMNSTSLVTY
modifications: Lactobacillus johnsonii BSH-56
Consider B1, for which the values for the Specific activity in data set [3] (glycine release) and in data set [3] (taurine release) were 0.536 μmole of glycine/5 min at 37° and 2.604 μmole taurine/5 min at 37° C./, respectively. In addition, the “inhibitory effect on G. lamblia trophozoites” value in the data set with G. lamblia trophozoites [4] (setting [10]) is “strong inhibitory effects”; with G. lamblia trophozoites [4] (without bovine bile) it was “no inhibitory effect”.

B2: BSH-47: recombinant L. johnsonii La1 bile-salt hydrolase LJ1147 produced in E. coli, His-Tag purified (protein)
chain: MCTSILYSPKDNYFGRNLDYEIAYGQKVVITPRNYQLNYRHLPTQDTHYAMIGVSVVANDYPLYCDAINEKGLGIAGLNFTGPGKYFSVDESKKNVTSFELIPYLLSNCETIEDVKKLLSETNITDESFSKDLPVTTLHWLMGDKSGKSIVIESTETGLHVYDNPVNTLTNNPVFPAQVETLANFASVSPAQPKNTLVPNADINLYSRGLGTHHLPGGTDSNSRFIKASFVLAHSPKGNDEVENVTNFFHVLHSVEQAKGTDEVEDNVFEFTMYSDCMNLDKGILYFTTYDNNQINAVDMNNEDLGTSDLITYELFKDQAIKFEN
modifications: His-tag; Lactobacillus johnsonii BSH-47
notes: recombinant L. johnsonii La1 bile-salt hydrolase LJ1147 produced in E. coli, His-Tag purified
In the case of B2, the figures for the Specific activity in data set [3] (glycine release) and in data set [3] (taurine release) were 0.066 μmole of glycine/5 min at 37° and 0.717 μmole taurine/5 min at 37° C./, respectively. The “substrate specificity on agar” value in data set [5] is on record as “taurospecific”. Further, the “inhibitory effect on G. lamblia trophozoites” value in the data set on G. lamblia trophozoites [4] (setting [10]) was “strong inhibitory effects”; in the data set on G. lamblia trophozoites [4] (without bovine bile), “no inhibitory effect”. Further, the “effect on Giardia trophozoites cultures” value with G. lamblia trophozoites [4] (0.96 U, with bovine bile (0.06 g/L)) is “exhibits an inhibiting effect”. Besides, the “parasite load in the small intestine” value with G. lamblia WB clone C6 (100 μg/ml group) is recorded as “significant reduction”. The “trophozoites load in the small intestine” value in the data set with G. lamblia WB clone C6 (all groups: 1, 10 and 100 μg/ml) was “reduction in trophozoites load”.
